The text below walks through data of US20220168304A1, “METHODS FOR TREATING CYSTIC FIBROSIS” (CHILDREN'S HOSPITAL MEDICAL CENTER, priority 2017, published 2022).

Experiment [1] relates to human duodenal organoids. Put plainly: Fluid secretion by forskolin-induced swelling (FIS) of human duodenal organoids. In kind it is cell-based. Conditions: FIG. 3; 0.1 micromolar saracatinib; forskolin 10 μM, 120 min; FSK vs no FSK significant, p value of 0.01. The procedure: (§1) Mouse intestinal organoids were cultured as described previously (DALTON et al., “New model of cystic fibrosis transmembrane conductance regulator proposes active channel-lik ? Inf Model (2012) Vol. 52, pp. 1842-1853). Human duodenal crypt isolation and enteroid expansion was performed as described previously (<<https://www.jove.com/video/52483/establishment-human-epithelial-enteroids-colonoids-from-whole-tissue>>) with some adaptations. Briefly, fresh biopsy is rinsed in ice-cold Dulbecco's Phosphate buffered saline without Ca^2+ and Mg^2+ (DPBS, Gibco), mounted and immersed in DPBS in a silica gel coated petri-dish using minutien pins with the mucosal side facing up.
Mucosa is gently scraped with curved forceps to remove villi and debris followed by 3-4 washes with DPBS. Crypts were dissociated using 2 mM EDTA (30 min, 4° C. with gentle shaking) followed by gentle scraping of the mucosa. The crypt suspension was filtered through a 150 μm nylon mesh twice and pelleted at 50×g, 4° C. The crypt pellet was resuspended in matrigel matrix (200 to 500 crypts/50 μl matrigel per well of a 24 well plate). […]
Fluid Secretion by forskolin-induced swelling (FIS) of human duodenal organoids (A) representative images (bar=20 micrometers) and (B) quantitation of fluid secretion.

The subject of experiment [2] is mouse intestinal organoids. Put plainly: Fluid secretion by forskolin-induced swelling (FIS) of mouse intestinal organoids. In kind it is cell-based. Conditions: FIG. 4; 0.1 micromolar saracatinib; forskolin 10 μM, 30 min; FSK vs no FSK significant, p value of 0.01. The procedure: as §1
Isolation of intestinal spheres and measurement of fluid secretion were performed as described previously (MOON et al., “Compartmentalized accumulation of cAMP near complexes of multidrug resistance protein 4 (MRP4) and cystic fibrosis transmembrane conductance regulator (CFTR) contributes to drug-induced diarrhea.” J Biol Chem (2015) Vol. 290, pp. 11246-11257). Day 1-4 intestinal organoids were treated with 0.1-10 μM of the test compound for 24 h before stimulation of CFTR function using forskolin (10 μM). […]
Fluid Secretion by forskolin-induced swelling (FIS) of mouse intestinal organoids (A) representative images (bar=20 micrometers) and (B) quantitation of fluid secretion.

Each structure is given as a SMILES string.

In the case of `CN1CCN(CCOc2cc(OC3CCOCC3)c3c(Nc4c(Cl)ccc5c4OCO5)ncnc3c2)CC1` [saracatinib, N-(5-chloro-1,3-benzodioxol-4-yl)-7-[2-(4-methyl-1-piperazinyl)ethoxy]-5-[(tetrahydro-2H-pyran-4-yl)oxy]-4-quinazolinamine], the “Fluid secretion (forskolin-induced swelling, FIS)” value in experiment [1] and in experiment [2] was “fluid secretion occurs when saracatinib is added” in each case.
